System: 565232-114-T-J1-PDC complex spheroid viability
Assay: Anticancer human tumor 565232-114-T-J1-PDC patient-derived bladder carcinoma cell line growth inhibition [CLK]
Conditions: for IC50: curve of first compound; for viability, T/C: stronger effect = lower value
In short: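 Multi-cell-type spheroids combined patient-derived tumor cells with HUVEC endothelial cells and human mesenchymal stem cells. Paired agents were dosed in half-log steps down from about clinical Cmax, or from 10 microM where Cmax was unknown.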
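Note: spheroids exposed to compounds for 7 days before readout.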
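Throughout, for viability, T/C: 100% = DMSO vehicle wells with luminescence normalized to vehicle control.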

Work on `Cn1ncnc1[C@H]1c2n[nH]c(=O)c3cc(F)cc(c23)N[C@@H]1c1ccc(F)cc1` + CNC(=O)c1ccc(Nc2nc(OC3CCCC3)c3c(-c4ccc5nc(C)oc5c4)c[nH]c3n2)c(OC)c1 yielded an IC50 (second compound 0.0316 µM) of over 100 nM, an IC50 (second compound 0.1 µM) of under 0.316 nM and an IC50 (second compound 0.316 µM) of under 0.316 nM. It also gave an IC50 (second compound 1 µM) of under 0.316 nM, an IC50 (second compound 3.16 µM) of under 0.316 nM and an IC50 (second compound 10 µM) of under 0.316 nM. It also gave a viability, T/C (second compound 0.0316 µM, first compound 0.000316 µM) of 107%, a viability, T/C (second compound 0.0316 µM, first compound 0.001 µM) of 81.8% and a viability, T/C (second compound 0.0316 µM, first compound 0.00316 µM) of 94.9%. The viability, T/C (second compound 0.0316 µM, first compound 0.01 µM) was 95%, the viability, T/C (second compound 0.0316 µM, first compound 0.0316 µM) was 84.8% and the viability, T/C (second compound 0.0316 µM, first compound 0.1 µM) was 53.2%. For the same compound, the viability, T/C (second compound 0.1 µM, first compound 0.000316 µM) was 50%, the viability, T/C (second compound 0.1 µM, first compound 0.001 µM) was 44.4% and the viability, T/C (second compound 0.1 µM, first compound 0.00316 µM) was 53.3%. It also gave a viability, T/C (second compound 0.1 µM, first compound 0.01 µM) of 43.6%, a viability, T/C (second compound 0.1 µM, first compound 0.0316 µM) of 34.7% and a viability, T/C (second compound 0.1 µM, first compound 0.1 µM) of 23.3%. It also gave a viability, T/C (second compound 0.316 µM, first compound 0.000316 µM) of 31.4%, a viability, T/C (second compound 0.316 µM, first compound 0.001 µM) of 29.8% and a viability, T/C (second compound 0.316 µM, first compound 0.00316 µM) of 30.4%. It also gave a viability, T/C (second compound 0.316 µM, first compound 0.01 µM) of 26.4%, a viability, T/C (second compound 0.316 µM, first compound 0.0316 µM) of 25.7% and a viability, T/C (second compound 0.316 µM, first compound 0.1 µM) of 15.4%. For the same compound, the viability, T/C (second compound 1 µM, first compound 0.000316 µM) was 21.9%, the viability, T/C (second compound 1 µM, first compound 0.001 µM) was 22.3% and the viability, T/C (second compound 1 µM, first compound 0.00316 µM) was 20%. The viability, T/C (second compound 1 µM, first compound 0.01 µM) was 16.9%, the viability, T/C (second compound 1 µM, first compound 0.0316 µM) was 22.2% and the viability, T/C (second compound 1 µM, first compound 0.1 µM) was 15.7%. It also gave a viability, T/C (second compound 3.16 µM, first compound 0.000316 µM) of 12.3%, a viability, T/C (second compound 3.16 µM, first compound 0.001 µM) of 20.6% and a viability, T/C (second compound 3.16 µM, first compound 0.00316 µM) of 18.7%. It also gave a viability, T/C (second compound 3.16 µM, first compound 0.01 µM) of 16.4%, a viability, T/C (second compound 3.16 µM, first compound 0.0316 µM) of 20.2% and a viability, T/C (second compound 3.16 µM, first compound 0.1 µM) of 12.4%. For the same compound, the viability, T/C (second compound 10 µM, first compound 0.000316 µM) was 20.4%, the viability, T/C (second compound 10 µM, first compound 0.001 µM) was 16.1% and the viability, T/C (second compound 10 µM, first compound 0.00316 µM) was 20.3%. The viability, T/C (second compound 10 µM, first compound 0.01 µM) was 19.5%, the viability, T/C (second compound 10 µM, first compound 0.0316 µM) was 17.8% and the viability, T/C (second compound 10 µM, first compound 0.1 µM) was 11.4%.

Reference: PubChem BioAssay AID2060612 (Molecular Pharmacology Branch, DTP, NCI, 2025)
